The values that follow come from patent publication US6613793B2 (Dabur Research Foundation, priority 2001, dated 2003).

Where two headings read alike, the source gives them in different places.

The test system of data set [1] is PA 1 Ovary. Briefly: MTT cytotoxicity assay, PA 1. Format: cell-based. Particulars: Homo sapiens, 24 h; PA 1 Ovarian; read-out: ED50 values of cytotoxicity. Here is the method:
(§1) Briefly, a three day MTT cytotoxicity assay was performed, which is based on the principle of uptake of MTT (3-(4,5-dimethylthiazol-2-yl)-2,5-diphenyl tetrazolium bromide), a tetrazolium salt, by the metabolically active cells where it is metabolized by active mitochondria into a blue colored formazan product that is read spectrophotometrically. MTT was dissolved in phosphate buffered saline with a pH of 7.4 to obtain an MTT concentration of 5 mg/ml; the resulting mixture was filtered through a 0.22 micron filter to sterilize and remove a small amount of insoluble residue. For each type of tumor cell, 20,000 to 50,000 cells were seeded in a 96-well culture plate and incubated with the combination in a CO2 incubator for 24 hours. […] After incubating for one hour, the plate was read spectrophotometrically at 540 nm and the percentage cytotoxicity calculated.

The subject of data set [2] is ECV304 cells. Briefly: Inhibition of tube-like-structure (TLS) formation on Matrigel. It is filed as cell-based. On the set-up: key: significant (++); marginal (+); no effect (−). Particulars: 24 hours. Here is the method:
Matrigel (70 ul) was placed into each well of a 96-well culture plate at 4° C. and was allowed to polymerize by incubation at 37° C. for 30 min. ECV304 (1×10^4) cells were seeded on the Matrigel in 200 ul DMEM supplemented with 10% FBS. The compounds to be tested were added to marked wells at selected non-cytotoxic concentrations and incubated at 37° C. for 24 hours. Five different phase-contrast microscopic fields (4X) were viewed and tube-like structure formation was evaluated qualatively by observing formation of lumen (sprouting) and extent of formation of branches and loops by sprouts (intususception). The inhibition of TLS caused by the addition of the test compound was recorded as significant (++), marginal (+), or no effect (−) as compared to the control TLS formation. A summary of the results is given below in the form of a table indicating the concentrations tested.

The subject of data set [3] is PTC (Colon) Tumor Xenografts. In words: Antitumor activity on PTC (Colon) tumor xenografts in nude mice. It is filed as in vivo, Balb/c athymic mice. Particulars: 10 mg orally once a day for 15 days; at the end of treatment. Here is the method:
PTC (colon) tumor xenografts were initiated in Balb/c athymic mice by subcutaneous inoculation of a single cell suspension of PTC cells (15×10^6 cells/100 μL). […] The anti-tumor activity was monitored by measuring tumor volumes every fourth day and calculating volumes using the formula 0.4×W^2×L(W=smaller dia, L=larger dia,).

In data set [4] the test system is Swiss albino mice. Format: in vivo. Particulars: oral; for safe dose: Swiss albino mice weighing 25 grams; for Mortality: observed 15 days.
Data set [5] deals with MOLT 4 Leukemia. In words: MTT cytotoxicity assay, MOLT 4. It is filed as cell-based. Particulars: Homo sapiens, 24 h, read-out: ED50 values of cytotoxicity. Here is the method:
as §1

In data set [6] the test system is PTC Colon. Briefly: MTT cytotoxicity assay, PTC. It is filed as cell-based. Particulars: Homo sapiens, 24 h, read-out: ED50 values of cytotoxicity. Here is the method:
as §1

Data set [7] concerns DU145 Prostate. In words: MTT cytotoxicity assay, DU145. Format: cell-based. Particulars: Homo sapiens, DU-145, 24 h, read-out: ED50 values of cytotoxicity. Here is the method: as §1
Background: Formazan colour is commonly taken as a measure of viable cells.

The test system of data set [8] is L132 Lung. Briefly: MTT cytotoxicity assay, L132. Format: cell-based. Particulars: Homo sapiens, 24 h, read-out: ED50 values of cytotoxicity. Here is the method: as §1
Data set [9] relates to MCF7 breast. In words: MTT cytotoxicity assay, MCF7. It is filed as cell-based. Particulars: Homo sapiens; for IC50: 24 h, MCF7 Breast, read-out: ED50 values of cytotoxicity. Here is the method:
as §1

Data set [10] deals with U87MG Glioblastoma. Briefly: MTT cytotoxicity assay, U87MG. Particulars: Homo sapiens, U-87 MG, 24 h, read-out: ED50 values of cytotoxicity. It is filed as cell-based. Here is the method: as §1
For data set [11], the system named is KB Oral. In words: MTT cytotoxicity assay, KB. Format: cell-based. Particulars: Homo sapiens, 24 h, read-out: ED50 values of cytotoxicity. Here is the method: as §1
The test system of data set [12] is Hep2 Larynx. In words: MTT cytotoxicity assay, Hep2. It is filed as cell-based. Particulars: Homo sapiens, HEp-2, 24 h, read-out: ED50 values of cytotoxicity. Here is the method: as §1
Data set [13] deals with INT 407 Intestine. Briefly: MTT cytotoxicity assay, INT 407. Format: cell-based. Particulars: Homo sapiens, 24 h, read-out: ED50 values of cytotoxicity. Here is the method: as §1
The test system of data set [14] is Glyceraldehyde 3 phosphate dehydrogenase. Briefly: Glyceraldehyde 3 phosphate dehydrogenase enzyme activity assay. Format: biochemical. Here is the method: The activity of Glyceraldehyde 3 phosphate dehydrogenase enzyme was assayed by the methods detailed earlier. (Krebs E, 1955, Methods in Enzymology, 1 407 and Velick S, 1955, Methods in Enzymology, 1, 401). To monitor the reaction, the increase in absorbance at 340 nm due to the formation of NADH from NAD was recorded at 15 seconds intervals, the values remaining almost linear for 3 minutes. The assay mixture was in a total volume of 1.5 ml containing 1.3 ml of Sodium pyrophosphate buffer (0.015M; pH 8.5), containing sodium arsenate (0.03M), 0.05 ml of NAD (7.5 mM), 0.05 ml of DTT (0.1M) and 0.05 ml of DL- glyceraldehyde 3 phosphate (7 mM). The enzyme was diluted 1:100 immediately prior to use in Sodium pyrophosphate buffer (0.015M) (pH 8.5) containing sodium arsenate (0.03M). The reaction was initiated by the addition of 0.05 ml of glyceraldehyde 3 phosphate dehydrogenase enzyme. The test mixture contained methyl glyoxal or its conjugates in concentrations ranging from 0.5 mM to 5 mM. Methyl glyoxal and its conjugates were dissolved in 2.5% ethanol and water. The control experiments were carried out in the absence of the enzyme or the substrate under identical conditions. One unit of activity of glyceraldehyde 3 phosphate dehydrogenase is defined as the amount of enzyme required to convert lumol of NAD to NADH per minute under conditions defined as above.

The test system of data set [15] is 293 Kidney. Briefly: MTT cytotoxicity assay, 293. Particulars: Homo sapiens, 24 h, read-out: ED50 values of cytotoxicity. Format: cell-based. Here is the method:
as §1

Data set [16] relates to Miapaca2 Pancreas. Briefly: MTT cytotoxicity assay, Miapaca2. It is filed as cell-based. Particulars: Homo sapiens, MIA PaCa-2, 24 h, read-out: ED50 values of cytotoxicity. Here is the method: as §1
[17] abbreviates: dosage level 2.5X (X=400 mg/kg B.Wt.).
Where [18] appears, read: dosage level 3.5X (X=400 mg/kg B.Wt.).
Setting [19] is: dosage level 5X (X=400 mg/kg B.Wt.).
The mark [20] stands for this setting: dosage level 7.5X (X=400 mg/kg B.Wt.).
The mark [21] stands for this setting: dosage level 10X (X=400 mg/kg B.Wt.).

On to `CC(=O)C(O)N1C(=O)CCC1C(=O)OCc1ccccc1` (stereo not shown) [MGC-3, N-(1-Hydroxy-2-ketopropyl)-benzylpyroglutamate], for which the IC50 in data set [1] came to 1800 ± 600 µM. In addition, the “TLS Inhibition (Qualitative)” value in data set [2] (2 mM) is on record as “+”; in data set [2] (2.5 mM) it was “++”.
Regarding `COC(=O)C1CCC(=O)N1C(OC(C)=O)C(C)=O` (stereo not shown) [MGC-4, N-(1-Acetoxy-2-ketopropyl)-methylpyroglutamate], the “average tumor volume as compared to average tumor volume of untreated control tumors” value in data set [3] is given as 41%. Further, in [2] (1.2 mM), the “TLS Inhibition (Qualitative)” value was “−”. In addition, the safe dose in [4] is reported as 100 mg. The Mortality in [4] (setting [17]), in data set [4] (setting [18]), in data set [4] (setting [19]), in data set [4] (setting [20]) and in data set [4] (setting [21]) was 0/10 each time.
Turning to `CCOC(=O)C1CCC(=O)N1C(OC(C)=O)C(C)=O` (stereo not shown) [MGC-8, N-(1-Acetoxy-2-ketopropyl)-ethylpyroglutarnate], the IC50 is 2900 ± 500 µM in data set [5]; 1800 ± 700 µM in [1]; 2750 ± 400 µM in [6]; 1300 ± 300 µM in data set [7]; above 5000 µM in [8]; 2400 ± 1200 µM in data set [9]. Further, the IC50 in data set [10] is 1880 ± 700 µM; in data set [11], 1950 ± 800 µM; in [12] it was 2100 ± 600 µM; in data set [13], 550 ± 300 µM. Further, the results for the “Percent Inhibition Of Glyceraldehyde 3 Phosphate Dehydrogenase Activity” value in [14] (0.5 mM), in [14] (1 mM) and in data set [14] (5 mM) were 32.8 ± 1.2%, 40.1 ± 2.2% and 38.2 ± 1.9%, respectively. The molecule also displayed a safe dose in data set [4] of 100 mg. Further, the Mortality in [4] (setting [17]), in [4] (setting [18]), in [4] (setting [19]), in data set [4] (setting [20]) and in data set [4] (setting [21]) was 0/10 each time.
In the case of `CCCCOC(=O)C1CCC(=O)N1C(OC(C)=O)C(C)=O` (stereo not shown) [MGC-5, N-(1-Acetoxy-2-ketopropyl)-butylpyroglutamate], the IC50 in data set [11] was 2000 ± 700 µM; in data set [15], 1900 ± 700 µM. Further, in [2] (1.2 mM), the “TLS Inhibition (Qualitative)” value is recorded as “+”.
`CC(=O)OC(C(C)=O)N1C(=O)CCC1C(=O)OCc1ccccc1` (stereo not drawn) [MGC-6, N-(l-acetoxy-2-ketopropyl)-benzylpyroglutamate]: the IC50 was 1300 ± 300 µM in data set [5]; 1400 ± 200 µM in data set [1]; 1600 ± 400 µM in data set [6]; 3900 ± 1000 µM in [16]; 1900 ± 1000 µM in data set [7]; 3800 ± 1000 µM in [8]. The IC50 in data set [9] was above 5000 µM; in [10], 4780 ± 600 µM; in data set [11] it was 2950 ± 300 µM; in data set [12], 1200 ± 200 µM; in [15], 2900 ± 1000 µM; in data set [13], above 5000 µM. Also, the “Percent Inhibition Of Glyceraldehyde 3 Phosphate Dehydrogenase Activity” value in data set [14] (0.5 mM) was 28.3 ± 2.5%; in [14] (1 mM), 29.4 ± 3.0%; in [14] (5 mM) it was 30.1 ± 4.0%. For the same molecule, in data set [2] (1.2 mM), the “TLS Inhibition (Qualitative)” value is recorded as “−”. The safe dose in data set [4] is 75 mg. Further, the Mortality in data set [4] (setting [17]) is 0/10; in [4] (setting [18]), 0/10; in [4] (setting [19]) it was 0/10; in data set [4] (setting [20]) it was 0/10; in [4] (setting [21]) it was 10/10.
As to `CCOC(=O)C1CCC(=O)N1C(O)C(C)=O` (stereo not shown) [MGC-7, N-(1-Hydroxy-2-ketopropyl)-ethylpyroglutamate], the safe dose in [4] came to 100 mg. In addition, the Mortality in data set [4] (setting [17]), in [4] (setting [18]), in data set [4] (setting [19]), in [4] (setting [20]) and in [4] (setting [21]) was 0/10 in each case.
For the molecule `COC(=O)C1CCC(=O)N1C(O)C(C)=O` (stereo not shown) [MGC-1, N-(1-Hydroxy-2-ketopropyl)-methylpyroglutamate], the cytotoxicity at 1000 µM in data set [9] (MCF7, 1.0 mM, read-out: Percent cytotoxicity) was 0%. Also, in [9] (MCF7, 5 mM, read-out: Percent cytotoxicity), the cytotoxicity at 5000 µM stood at 12.9 ± 2.1%.
Turning to `CCCCOC(=O)C1CCC(=O)N1C(O)C(C)=O` (stereo not shown) [MGC-2, N-(1-Hydroxy-2-ketopropyl)-butylpyroglutamate], the IC50 in [15] came out at 2000 ± 800 µM. The “TLS Inhibition (Qualitative)” value in [2] (1.2 mM) is recorded as “+”. In data set [4], the safe dose came out at 75 mg. For the same molecule, the Mortality in [4] (setting [17]) is given as 0/10; in data set [4] (setting [18]) it was 0/10; in data set [4] (setting [19]), 0/10; in [4] (setting [20]), 0/10; in data set [4] (setting [21]) it was 10/10.
Turning to `CC(=O)C=O` [Methylglyoxal, reference compound], the “Percent Inhibition Of Glyceraldehyde 3 Phosphate Dehydrogenase Activity” value in data set [14] (0.5 mM) worked out at 15 ± 4%; in data set [14] (1 mM), 18 ± 3.4%; in [14] (5 mM), 20 ± 4.0%. Besides, the “Glyceraldehyde 3 phosphate dehydrogenase enzyme activity inhibition (in words)” value in data set [14] (concentration ranging from 0.5 mM to 5 mM) is on record as “inhibited significantly”. For the same molecule, the “average tumor volume as compared to average tumor volume of untreated control tumors” value in data set [3] came to 50%. Besides, the “TLS Inhibition (Qualitative)” value is listed as “+” in [2] (0.5 mM), “+” in data set [2] (0.8 mM) and “++” in data set [2] (1 mM).
